Data taken from paper PMC11901561, “Free Radical Scavenging Activity and Inhibition of Enzyme-Catalyzed Oxidation by trans-aryl-Palladium Complexes” (Molecules, 2025).
Read-outs that look alike come from different tables or passages of the source.

Tests used:
[1] = ABTS radical scavenging test (spectrophotometric, 734 nm); conditions: for Radical scavenging activity against ABTS•+: inhibition curve did not converge, EC50 could not be calculated
Procedure: (§1) Radical scavenging capacity, as an indicator of the antioxidant capacity of compounds against 1,1-diphenyl-2-picrylhydrazyl (DPPH) free radicals and 2,2-azinobis (3-ethyl- enzothiazoline-6-sulfonic acid), ABTS•+ radical cations, was determined using a spectrophotometric assay. Antiradical capacity analysis was performed either on pure MeOH for ABTS or the mixture of MeOH/distilled water (90:10 v/v) for DPPH. For both ABTS and DPPH assays, the stock solutions of complexes were prepared in DMSO. Quercetin was used as an antioxidant standard in the DPPH and ABTS•+ scavenging tests. EC50 is defined as the concentration of compound (µM) required to scavenge 50% of ABTS•+ or DPPH radicals. EC50 values were estimated using nonlinear regression. A lower EC50 value indicates higher antiradical activity.
The ABTS assay was based on the method described by Re et al.. For the generation of ABTS•+ radicals, sodium persulfate (2.45 mM) aqueous solution was mixed with ABTS (7 mM) and incubated overnight in the dark to obtain a dark colored solution. The stock solution of ABTS•+ was then diluted by adding pure methanol (100%) to obtain an absorbance of 0.70 (±0.02) at 734 nm at 30 °C. An aliquot of 0.02 mL of tested compound was added to 1.98 mL of ABTS•+, and the decrease in absorbance was monitored at 734 nm after 30 min [80]. During this reaction, the blue green ABTS radical cation is converted back into its colorless neutral form in the presence of the potential antioxidant molecule. A control consisted of 0.02 mL of DMSO in 1.98 mL of ABTS•+ solution. The reducing capacity was determined according to the following formula:% inhibition = (A control − A Sample) × 100/A Control (1)
(§2) Results were expressed as mean values ± standard deviation (SD). All measurements were replicated three times. EC50 values were calculated with GraphPad Prism 6.0 (GraphPad Software, San Diego, CA, USA) under the application of the function “log (inhibitor) versus normalized response-variable slope” after converting the concentrations into their decimal logarithm. The results were analyzed using Student’s test and a two-way analysis of variance (ANOVA), and a multiple comparison of all data was performed using Tukey’s multiple comparisons test. p < 0.0001 was considered significant.

[2] = DPPH radical scavenging test (spectrophotometric, 517 nm); conditions: for EC50 (g Antioxidant/kg DPPH°): EC50 expressed as weight of antioxidant per kg of DPPH radical; for EC50: concentration scavenging 50% of DPPH, 90% MeOH, 30 min, mean ± SD
Procedure: as §1, with “EC50 is defined as the concentration of compound (µM) required to scavenge 50% of ABTS•+ or DPPH radicals.” left out
The DPPH assay was performed according to the method developed by Brand-Williams et al. slightly modified. A solution of 1 mM DPPH in 90% (v/v) methanol was stirred for 40 min. The absorbance of the solution was adjusted to 0.650 ± 0.020 at 517 nm using fresh 90% (v/v) methanol. Then, 0.02 mL of quercetin taken as a standard or sample was mixed with 1.98 mL of DPPH solution and incubated for 30 min in the dark covered with aluminum foil. When reacting with an antioxidant, the DPPH• radical is converted into DPPH, and its color changes from purple to yellow. The antioxidant effect may be easily evaluated by observing the decrease in visible absorption. The absorbance decrease was monitored at 517 nm after 30 min of incubation with a Hewlett Packard 8453 spectrophotometer. The control consisted of 0.02 mL of DMSO in 1.98 mL of DPPH solution. A similar formula (Equation (1)) was applied to determine the DPPH radical scavenging activity.
as §2

[3] = target: T1, horseradish peroxidase (HRP) (Armoracia rusticana, UniProt P00433); experiment: biochemical; format: biochemical; conditions: for EC50: HRP-H2O2/L-012 system, pH 7.5, 37 °C, 30 min, read-out: EC50 chemiluminescence assay; for Effect on chemiluminescence at lowest concentrations: 1, 5, and 10 µM, HRP-H2O2/L-012
T1 sequence (P00433 31-338 limits assumed): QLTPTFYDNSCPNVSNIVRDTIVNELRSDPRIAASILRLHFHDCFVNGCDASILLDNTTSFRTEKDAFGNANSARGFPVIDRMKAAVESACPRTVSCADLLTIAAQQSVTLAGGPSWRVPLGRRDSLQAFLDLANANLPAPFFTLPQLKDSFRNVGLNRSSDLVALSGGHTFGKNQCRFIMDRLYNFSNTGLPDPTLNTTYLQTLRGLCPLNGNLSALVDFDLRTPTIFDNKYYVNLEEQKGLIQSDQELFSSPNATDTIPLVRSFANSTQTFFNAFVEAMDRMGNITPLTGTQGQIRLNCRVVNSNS
Procedure: To investigate the effect of selected palladium (II)-based complexes on the peroxidase (HRP)-catalyzed oxidation of the chemiluminescent probe (L-012), in the presence of hydrogen peroxide (H2O2), the chemiluminescence technique was used. Briefly, plate-reader-based luminescence measurements were performed in white 96-well plates using a Fluoroskan Ascent FL microplate reader (Thermo Labsystems, Vantaa, Finland), with the temperature set at 37 °C. To 5 µL of a stock solution of HRP (1 mg/mL) in phosphate buffer (pH = 7.5) per well, we successively added 10 µL of L-012 (aqueous solution, 0.84 mmoL) and 2 µL of tested compound in 163 µL of buffer solution. The reaction was triggered by adding 20 µL hydrogen peroxide (0.19 µM) to reach the final volume of 200 µL. The light emission, produced from oxidation of L-012 by HRP/H2O2 system, in the presence or absence of the tested palladium complex, was recorded in kinetic mode for 30 min. Inhibition of the emitted light due to tested complexes was associated with higher activity. The following formula was applied to calculate the inhibiting activity of complexes towards the oxidation of L-012 catalyzed by the HRP/H2O2 system:% inhibition = (L control − L Sample) x 100/L Control
as §2

[4] = Antiradical efficiency (kinetic study via DPPH assay); conditions: for AE (antiradical efficiency): AE = 1/EC50.TEC50, DPPH; for TEC50: time needed to reach the steady state at the EC50 concentration, DPPH; for Classification of antiradical efficiency: according to Sanchez-Moreno, from AE value
Procedure: The reaction between potential antioxidants and the oxidized substrate requires a steady state which will depend on several parameters, such as the reaction time. The time needed to reach the steady state, at the concentration corresponding to EC50, is more and more frequently used and can be defined as TEC50. In brief, TEC50 was determined by plotting the recorded absorbance during the period for the EC50 concentration for the considered antioxidant compound. […] The antiradical efficiency of compounds and their classification are considered according to the work of Sanchez-Moreno [69].

[5] = flavonoid comparison ref 63; read-out: IC50 DPPH, literature value; cited from earlier work
[6] = concentration scavenging 50% of ABTS•+, MeOH, 30 min, mean ± SD

SMILES | Radical scavenging activity against ABTS•+ [1] | Radical scavenging activity against ABTS•+ ([1]; listed as Cisplatin (CisPt)) | Radical scavenging activity against DPPH ([2]; inhibition curve did not converge, EC50 could not be calculated) | EC50 [1, 6] [mM] | EC50 [3] [µM] | AE (antiradical efficiency) [4] | TEC50 [4] [min] | EC50 (g Antioxidant/kg DPPH°) [2] | EC50 [2] [µM] | Classification of antiradical efficiency [4] | Effect on chemiluminescence at lowest concentrations [3] | IC50 ([2]; value given in text in mM) [mM] | EC50 ([1]; value given in text in mM) [mM] | Activity against the ABTS radical ([1]; 100 µM) | Activity against the DPPH radical ([2]; 100 µM) | IC50 [5] [µM]
N.N.[Cl][Pt][Cl] [CisPt, Cisplatin, reference compound] | no antioxidant activity | does not show any radical scavenging activity | no antioxidant activity |  |  |  |  |  |  |  |  |  |  |  |  | 
COc1cc[c]([Pd@SP2]([I])([PH](c2ccccc2)(c2ccccc2)c2ccccc2)[PH](c2ccccc2)(c2ccccc2)c2ccccc2)cc1 [Complex 1, Trans-Iodo(4-methoxyphenyl)bis(triphenylphosphine)Palladium] |  |  |  | 0.00578 ± 0.00098 | 3.56 ± 1.87 | 1.8437 ×10^−3 | 11 | 49.31 ± 39 g Antioxidant/kg DPPH° | 1.14 ± 0.9 |  |  |  |  |  |  | 
COc1cc[c]([Pd@SP2]([Br])([PH](c2ccccc2)(c2ccccc2)c2ccccc2)[PH](c2ccccc2)(c2ccccc2)c2ccccc2)cc1 [Complex 2, Trans-Bromo(4-methoxyphenyl)bis(triphenylphosphine)Palladium] |  |  |  | 0.00701 ± 0.00098 | 1.48 ± 0.71 | 0.2155 ×10^−3 | 16 |  | 7.09 ± 0.94 | Low |  |  |  |  |  | 
COc1cc[c]([Pd@SP2]([Cl])([PH](c2ccccc2)(c2ccccc2)c2ccccc2)[PH](c2ccccc2)(c2ccccc2)c2ccccc2)cc1 [Complex 3, Trans-Chloro(4-methoxyphenyl) bis(triphenylphosphine)Palladium] |  |  |  | 0.0111 ± 0.00094 | 5.8 ± 2.6 | 0.2160 ×10^−3 |  | 73.49 ± 38 g Antioxidant/kg DPPH° | 1.9 ± 0.87 | Low |  |  |  |  |  | 
CC(=O)Oc1cc[c]([Pd@SP2]([I])([PH](c2ccccc2)(c2ccccc2)c2ccccc2)[PH](c2ccccc2)(c2ccccc2)c2ccccc2)cc1 [Complex 4, Trans-Iodo(4-acethoxyphenyl)bis(triphenylphosphine)Palladium] |  |  |  | 0.0109 ± 0.00095 | 11.3 ± 3.3 | 0.0002 ×10^−3 | 78 | 82,194.89 ± 33 g Antioxidant/kg DPPH° | 1840.8 ± 0.44 | Low | weak effect | 1.84 |  |  |  | 
CC(=O)Oc1cc[c]([Pd@SP2]([Br])([PH](c2ccccc2)(c2ccccc2)c2ccccc2)[PH](c2ccccc2)(c2ccccc2)c2ccccc2)cc1 [Complex 5, Trans-Bromo(4-acethoxyphenyl)bis(triphenylphosphine)Palladium] |  |  |  | 0.1358 ± 0.00025 | 5.28 ± 2.3 | 0.0264 ×10^−3 | 58 | 653.57 ± 20 g Antioxidant/kg DPPH° | 15.5 ± 0.96 | Low |  |  | 0.135 |  |  | 
CC(=O)Oc1cc[c]([Pd@SP2]([Cl])([PH](c2ccccc2)(c2ccccc2)c2ccccc2)[PH](c2ccccc2)(c2ccccc2)c2ccccc2)cc1 [Complex 6, Trans-Chloro(4-acethoxyphenyl)bis(triphenylphosphine)Palladium] |  |  |  | 0.0458 ± 0.00095 | 6.46 ± 2.28 | 0.0328 ×10^−3 | 53 | 573.94 ± 40 g Antioxidant/kg DPPH° | 14.3 ± 0.92 | Low |  |  |  |  |  | 
[I][Pd]([c]1ccccc1)([PH](c1ccccc1)(c1ccccc1)c1ccccc1)[PH](c1ccccc1)(c1ccccc1)c1ccccc1 [Complex 7, Trans-Iodo(phenyl)bis(triphenylphosphine)Palladium] |  |  |  | 0.00614 ± 0.00094 | 67 ± 20.1 | 0.0081 ×10^−3 | 66 | 1882.11 ± 37 g Antioxidant/kg DPPH° | 45.1 ± 0.95 | Low | weak effect |  |  | good activity |  | 
[Br][Pd@SP2]([c]1ccccc1)([PH](c1ccccc1)(c1ccccc1)c1ccccc1)[PH](c1ccccc1)(c1ccccc1)c1ccccc1 [Complex 8, Trans-Bromo(phenyl)bis(triphenylphosphine)Palladium] |  |  |  | 0.0143 ± 0.00092 | 33.3 ± 11.7 | 0.0955 ×10^−3 | 40 | 260.96 ± 40 g Antioxidant/kg DPPH° | 6.64 ± 0.91 | Low | weak effect |  |  |  | good activity | 
[Cl][Pd@SP2]([c]1ccccc1)([PH](c1ccccc1)(c1ccccc1)c1ccccc1)[PH](c1ccccc1)(c1ccccc1)c1ccccc1 [Complex 9, Trans-Chloro(phenyl)bis(triphenylphosphine)Palladium] |  |  |  | 0.0103 ± 0.00064 | 39.2 ± 17 | 0.1019 ×10^−3 | 36 | 271.97 ± 36 g Antioxidant/kg DPPH° | 7.33 ± 0.97 | Low | weak effect |  |  |  |  | 
Oc1cc(O)c2c(c1)O[C@H](c1ccc(O)c(O)c1)[C@H](O)C2 [epicatechin] |  |  |  |  |  |  |  |  |  |  |  |  |  |  |  | 15.7
